Data from patent US10065967B2, “Compounds that are ERK inhibitors” (Merck Sharp & Dohme Corp., priority 2013, dated 2018).
Counter-ions that a name gives are not always drawn.

target: Active Human ERK2 (hERK2) (Homo sapiens (Human), UniProt P28482); assay: Active Human ERK2 (hERK2) Activity Assay (IMAP-FP); assay type: biochemical; settings: phosphorylated active hERK2 0.5 nM, 30 μM ATP, 10 point titration, read-out: ERK 2 Human average IC50
Procedure: Assays Active Human ERK2 (hERK2) Activity Assay:
Activated ERK2 activity was determined in an IMAP-FP assay (Molecular Devices). Using this assay format, the potency (IC50) of each compound was determined from a 10 point (1:3 serial dilution, 3 μM starting compound concentration) titration curve using the following outlined procedure. […] Following a 15 minute compound & enzyme incubation, each reaction was initiated by the addition of 10 μL kinase buffer containing 2.45 μM ERK2 IMAP substrate peptides (2.25 μM-unlabeled peptide and 200 nM-labeled peptide, and 75 μM ATP. The final reaction in each well of 25 μL consists of 0.5 nM hERK2, 900 nM unlabeled peptide, 80 nM labeled-peptide, and 30 μM ATP. Phosphorylation reactions were allowed to proceed for 60 minutes and were immediately quenched by the addition of 60 μL IMAP detection beads (1:1000 dilutions) in IMAP binding buffer (Molecular Devices) with 24 mM NaCl. Plates were read on EnVision reader after 60 minutes binding equilibration using Fluorescence Polarization protocol (Perkin Elmer).

Active Human ERK2 (hERK2), sequence (P28482 whole entry): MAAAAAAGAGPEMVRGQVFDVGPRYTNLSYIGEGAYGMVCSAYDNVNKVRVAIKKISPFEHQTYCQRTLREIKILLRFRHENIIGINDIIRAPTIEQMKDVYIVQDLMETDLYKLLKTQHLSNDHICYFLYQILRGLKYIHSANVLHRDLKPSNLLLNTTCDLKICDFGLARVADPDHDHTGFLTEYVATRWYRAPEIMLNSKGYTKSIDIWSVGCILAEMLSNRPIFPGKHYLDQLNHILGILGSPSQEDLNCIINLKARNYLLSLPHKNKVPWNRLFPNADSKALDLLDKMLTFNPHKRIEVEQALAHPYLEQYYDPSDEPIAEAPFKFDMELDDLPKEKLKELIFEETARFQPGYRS

SMILES | IC50 [nM]
Cc1cc(-c2n[nH]c3cc4[nH]c(=O)n([C@H](C)c5ccccc5)c(=O)c4cc23)ccn1 [Example 23, (R)-3-(2-methylpyridin-4-yl)-6-(1-phenylethyl)-1H-pyrazolo[4,3-g]quinazoline-5,7(6H,8H)-dione] | 3.7
Cc1cc(-c2n[nH]c3cc4c(cc23)CN(Cc2cccc(C)n2)C(=O)N4)ccn1 [Example 21, 6-((6-methylpyridin-2-yl)methyl)-3-(2-methylpyridin-4-yl)-5,6-dihydro-1H-pyrazolo[4,3-g]quinazolin-7(8H)-one] | 0.6
C[C@H](c1ccccc1)N1Cc2cc3c(-c4ccc(C#N)nc4)n[nH]c3cc2NC1=O [Example 27, (R)-5-(7-oxo-6-(1-phenylethyl)-5,6,7,8-tetrahydro-1H-pyrazolo[4,3-g]quinazolin-3-yl)picolinonitrile] | 10
C[C@H](c1ccccc1)N1Cc2cc3c(-c4ccnc(F)c4)n[nH]c3cc2NC1=O [Example 41, (R)-3-(2-fluoropyridin-4-yl)-6-(1-phenylethyl)-5,6-dihydro-1H-pyrazolo[4,3-g]quinazolin-7(8H)-one] | 0.3
Cc1cc(-c2n[nH]c3cc4c(cc23)CN([C@H](C)c2ccc(F)cc2)C(=O)N4)ccn1 [Example 10, (R)-6-(1-(4-fluorophenyl)ethyl)-3-(2-methylpyridin-4-yl)-5,6-dihydro-1H-pyrazolo[4,3-g]quinazolin-7(8H)-one] | 0.3
Cc1cc(-c2n[nH]c3cc4c(cc23)CN(Cc2ccccc2)C(=O)N4)ccn1 [Example 14, 6-benzyl-3-(2-methylpyridin-4-yl)-5,6-dihydro-1H-pyrazolo[4,3-g]quinazolin-7(8H)-one] | 0.5
COC[C@H](c1ccc(F)cc1)N1Cc2cc3c(-c4ccnc(C)c4)n[nH]c3cc2NC1=O [Example 17] | 0.7
COCCOc1n[nH]c2cc3c(cc12)CN([C@H](C)c1ccccc1)C(=O)N3 [Example 36, (R)-3-(2-methoxyethoxy)-6-(1-phenylethyl)-5,6-dihydro-1H-pyrazolo[4,3-g]quinazolin-7(8H)-one] | 6.4
COc1ccccc1CN1Cc2cc3c(-c4ccnc(C)c4)n[nH]c3cc2NC1=O [Example 18, 6-(2-methoxybenzyl)-3-(2-methylpyridin-4-yl)-5,6-dihydro-1H-pyrazolo[4,3-g]quinazolin-7(8H)-one] | 0.8
Cc1cc(-c2n[nH]c3cc4c(cc23)CCN(Cc2ccc(F)cc2)C(=O)N4O)ccn1 [Example 11, 7-(4-fluorobenzyl)-9-hydroxy-3-(2-methylpyridin-4-yl)-5,6,7,9-tetrahydro-[1,3]diazepino[5,4-f]indazol-8(1H)-one] | 459
Cc1cc(-c2n[nH]c3cc4c(cc23)CCN([C@H](C)c2ccc(F)cc2)C(=O)N4)ccn1 [Example 12, (R)-7-(1-(4-fluorophenyl)ethyl)-3-(2-methylpyridin-4-yl)-5,6,7,9-tetrahydro-[1,3]diazepino[5,4-f]indazol-8(1H)-one] | 72
Cc1cc(-c2n[nH]c3cc4c(cc23)CN([C@H](C)c2ccccc2)C(=O)N4)ccn1 [Example 20, (R)-3-(2-methylpyridin-4-yl)-6-(1-phenylethyl)-5,6-dihydro-1H-pyrazolo[4,3-g]quinazolin-7(8H)-one 2,2,2-trifluoroacetate] | 0.3
C[C@H](c1ccccc1)n1c(=O)[nH]c2cc3[nH]nc(-c4ccc5nnn(C)c5c4)c3cc2c1=O [Example 15, (R)-3-(1-methyl-1H-benzo[d][1,2,3]triazol-6-yl)-6-(1-phenylethyl)-1H-pyrazolo[4,3-g]quinazoline-5,7(6H,8H)-dione] | 1.7
COc1ccccc1CCN1Cc2cc3c(-c4ccnc(C)c4)n[nH]c3cc2NC1=O [Example 19, 6-(2-methoxyphenethyl)-3-(2-methylpyridin-4-yl)-5,6-dihydro-1H-pyrazolo[4,3-g]quinazolin-7(8H)-one] | 2.3
COc1ncc(-c2n[nH]c3cc4c(cc23)CN([C@H](C)c2ccccc2)C(=O)N4)cn1 [Example 28, (R)-3-(2-methoxypyrimidin-5-yl)-6-(1-phenylethyl)-5,6-dihydro-1H-pyrazolo[4,3-g]quinazolin-7(8H)-one formate] | 0.6
Cc1cc(-c2n[nH]c3cc4c(cc23)CN(C2CCCOc3ccccc32)C(=O)N4)ccn1 (stereo not shown) [Example 16, 3-(2-methylpyridin-4-yl)-6-(2,3,4,5-tetrahydrobenzo[b]oxepin-5-yl)-5,6-dihydro-1H-pyrazolo[4,3-g]quinazolin-7(8H)-one] | 4.8

More lines, now with the values ahead:

IC50 [nM] | SMILES
228 | O=c1ccc2cc3cn[nH]c3cc2[nH]1 [Example 5, 1,8-dihydro-7H-pyrazolo[4,3-g]quinolin-7-one]
0.3 | Cn1cc(-c2n[nH]c3cc4[nH]c(=O)ccc4cc23)cn1 [Example 4, 3-(1-methyl-1H-pyrazol-4-yl)-1,8-dihydro-7H-pyrazolo[4,3-g]quinolin-7-one]
24 | C[C@H](c1ccccc1)N1Cc2cc3c(C4CC4)n[nH]c3cc2NC1=O [Example 40, (R)-3-cyclopropyl-6-(1-phenylethyl)-5,6-dihydro-1H-pyrazolo[4,3-g]quinazolin-7(8H)-one]
2.3 | CC(=O)Nc1n[nH]c2cc3c(cc12)CN([C@H](C)c1ccccc1)C(=O)N3 [Example 34, (R)-N-(7-oxo-6-(1-phenylethyl)-5,6,7,8-tetrahydro-1H-pyrazolo[4,3-g]quinazolin-3-yl)acetamide]
24 | C[C@H](c1ccccc1)N1Cc2cc3c(N4CCc5ncsc5C4)n[nH]c3cc2NC1=O [Example 47, (R)-3-(6,7-dihydrothiazolo[5,4-c]pyridin-5(4H)-yl)-6-(1-phenylethyl)-5,6-dihydro-1H-pyrazolo[4,3-g]quinazolin-7(8H)-one]
48 | C[C@H](c1ccccc1)N1Cc2cc3c(I)n[nH]c3cc2NC1=O [Example 43, (R)-3-iodo-6-(1-phenylethyl)-5,6-dihydro-1H-pyrazolo[4,3-g]quinazolin-7(8H)-one]
42 | O=c1ccc2cc3c(N4CCCCC4)n[nH]c3cc2[nH]1 [Example 25, 3-(piperidin-1-yl)-1H-pyrazolo[4,3-g]quinolin-7(8H)-one]
12 | O=c1ccc2cc3c(N4CCOCC4)n[nH]c3cc2[nH]1 [Example 24, 3-morpholino-1H-pyrazolo[4,3-g]quinolin-7(8H)-one]
20 | C[C@H](c1ccccc1)N1Cc2cc3c(OCCO)n[nH]c3cc2NC1=O [Example 37, (R)-3-(2-hydroxyethoxy)-6-(1-phenylethyl)-5,6-dihydro-1H-pyrazolo[4,3-g]quinazolin-7(8H)-one]
10 | C[C@H](c1ccccc1)N1Cc2cc3c(OC4CCOCC4)n[nH]c3cc2NC1=O [Example 39, (R)-6-(1-phenylethyl)-3-((tetrahydro-2H-pyran-4-yl)oxy)-5,6-dihydro-1H-pyrazolo[4,3-g]quinazolin-7(8H)-one]
24 | Cc1cc(-c2n[nH]c3cc4c(cc23)CN([C@@H]2CCCCc3ccccc32)C(=O)N4)ccn1 [Example 22, (R)-3-(2-methylpyridin-4-yl)-6-(6,7,8,9-tetrahydro-5H-benzo[7]annulen-5-yl)-5,6-dihydro-1H-pyrazolo[4,3-g]quinazolin-7(8H)-one]
0.3 | Cn1cc(-c2n[nH]c3cc4[nH]c(=O)c(Cc5ccccc5)cc4cc23)cn1 [Example 7, 6-benzyl-3-(1-methyl-1H-pyrazol-4-yl)-1,8-dihydro-7H-pyrazolo[4,3-g]quinolin-7-one]
114 | COc1n[nH]c2cc3c(cc12)CN([C@H](C)c1ccccc1)C(=O)N3 [Example 35, (R)-3-methoxy-6-(1-phenylethyl)-5,6-dihydro-1H-pyrazolo[4,3-g]quinazolin-7(8H)-one]
9 | C[C@H](c1ccccc1)N1Cc2cc3c(N4CCOCC4)n[nH]c3cc2NC1=O [Example 42, (R)-3-morpholino-6-(1-phenylethyl)-5,6-dihydro-1H-pyrazolo[4,3-g]quinazolin-7(8H)-one]
252 | Cc1cc(-c2n[nH]c3cc4c(cc23)CCCC(=O)N4)ccn1 [Example 9, 3-(2-methylpyridin-4-yl)-5,6,7,9-tetrahydroazepino[3,2-f]indazol-8(1H)-one]
0.3 | Cn1cc(-c2n[nH]c3cc4[nH]c(=O)c(Br)cc4cc23)cn1 [Example 6, 6-bromo-3-(1-methyl-1H-pyrazol-4-yl)-1,8-dihydro-7H-pyrazolo[4,3-g]quinolin-7-one trifluoroacetate]
21 | C[C@H](c1ccccc1)N1Cc2cc3c(OC4CCOC4)n[nH]c3cc2NC1=O (stereo partly drawn) [Example 38, 6-((R)-1-phenylethyl)-3-((tetrahydrofuran-3-yl)oxy)-5,6-dihydro-1H-pyrazolo[4,3-g]quinazolin-7(8H)-one]
0.6 | Cc1cc(-c2n[nH]c3cc4c(cc23)CNC(=O)N4)ccn1 [Example 13, 3-(2-methylpyridin-4-yl)-5,6-dihydro-1H-pyrazolo[4,3-g]quinazolin-7(8H)-one]
